Marks after values point to notes of the source that are not given here.
Columns and labels:
[1] = test system: mice transplanted with mouse fibrosarcoma Meth A cells; assay: Animal toxicity test; assay type: in vivo; conditions: intravenous days 1, 5, 9, observed three weeks
Protocol: Also, the toxicity of known phenanthroindolizidine alkaloid compounds, namely (12aS,13S)-6,7-dimethoxy-9,10,11,12,12a,13-hexahydro-9a-aza-cyclopenta[b]triphenylene-3,13-diol (known compound 1; refer to WO01/023384) and (12aS,13S)-3,6,7-trimethoxy-9,10,11,12,12a,13-hexahydro-9a-aza-cyclopenta[b]triphenylene-13-ol (known compound 2; refer to Planta Med., 2002, 68: 186-188), was simultaneously studied. To a control group, a physiological saline solution, a solvent, was administered. As a result, as shown in the following Tables 35 and 36, all the mice survived in a group administered with the compound of the present invention.

SV40 promoter = SV40 promoter activity, luciferase assay in SW480/SV40-Luc cells; assay type: cell-based, human; conditions: for SV40 promoter inhibitory activity IC50: SW480/SV40-Luc cells, luciferase; for IC50: Homo sapiens, SW480, read-out: SV40 promoter inhibitory activity IC50
Method in brief: (§1)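 Stable SW480 colon cancer lines carried luciferase driven by a 5× NFκB response element or by the SV40 promoter. Compound was added 1 h before 50 ng/mL TNFα, followed by 4 h culture at 37 °C; luminescence was read and IC50 taken as 50% inhibition of induced luciferase expression.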

NFκB = assay: Inhibitory action on the NFκB activity, luciferase assay in SW480/NRE-Luc cells; assay type: cell-based, human; conditions: for NFκB inhibitory activity IC50: SW480/NRE-Luc cells, compound 1 h then 50 ng/mL TNFα 4 h, luciferase; for IC50: Homo sapiens, SW480, read-out: NFκB inhibitory activity IC50
Method in brief: as §1

[2] = test system: human non-small cell lung cancer A549 cells; assay: Inhibitory action on the proliferation of A549 cells; assay type: cell-based; conditions: 96 hours, TetraColor ONE; for IC50: Homo sapiens, A549
Method in brief: (§2)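 Cells seeded overnight (SW480 2000/well in 10% FBS/RPMI1640; A549, HT-29 1000/well in 10% FBS DMEM or DMEM F12 HAM), then compound-treated at 37 °C, 5% CO2 for 48 h (SW480) or 96 h (A549, HT-29). Viable cells counted by TetraColor ONE; IC50 for 50% proliferation inhibition.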

[3] = test system: mouse fibrosarcoma Meth A cells; assay: Antitumor effect in mice transplanted with mouse fibrosarcoma Meth A cells; assay type: in vivo; conditions: intravenous on days 1, 5, 9, tumor weight day 21, BALB/c mice
Protocol: The antitumor effect of the phenanthroindolizidine alkaloid compound of the present invention in vivo was studied using mice transplanted with mouse fibrosarcoma Meth A cells. Meth A cells were transplanted subcutaneously in the inguinal region of male 7-week-old BALB/c mice (2.5×10^5 cells/mouse). Subsequently, on days 1, 5, and 9, the compound of the present invention was intravenously administered. To a control group, physiological saline, a solvent, was administered. On day 21 after the cell transplantation, tumor was excised and measured for its weight, and subsequently a tumor growth-inhibition rate IR (%) was obtained by the following formula. Tumor growth-inhibition rate IR (%)=(1−the weight of the tumor in an administration group/the weight of the tumor in a control group)×100

[4] = test system: human colon cancer SW480 cells; assay: Inhibitory action on the proliferation of SW480 cells; assay type: cell-based; conditions: 48 hours, TetraColor ONE; for IC50: Homo sapiens, SW480
Method in brief: as §2

[5] = test system: human colon cancer HT-29 cells; assay: Inhibitory action on the proliferation of HT-29 cells; assay type: cell-based; conditions: 96 hours, TetraColor ONE; for IC50: Homo sapiens, HT-29
Method in brief: as §2

Solubility of the salts = assay: Solubility of the salts
Source text: In in vivo studies, each compound was used in the form of a salt.

[6] = test system: human colon cancer HCT116 cells; assay: Antitumor effect in mice transplanted with human colon cancer HCT116 cells; assay type: in vivo, mouse; conditions: intraperitoneal days 1-5 and 8-12, tumor weight day 21, BALB/c nude mice
Source text: The antitumor effect of the phenanthroindolizidine alkaloid compound of the present invention in vivo was studied using mice transplanted with human colon cancer HCT116 cells. HCT116 cells were transplanted subcutaneously in the inguinal region of male 6-week-old BALB/c nude mice (2×10^6 cells/mouse). On days 1 to 5 and on days 8 to 12 after the time at which the estimated tumor volume obtained by ½ab^2 (a and b indicate the major axis and the minor axis of tumor, respectively) reached approximately 100 mm^3 (day 0), the compound of the present invention was administered (intraperitoneal administration). To a control group, a 5% glucose solution, a solvent, was administered. On day 21, tumor was excised and measured for its weight, and subsequently a tumor proliferation-inhibition rate IR (%) was calculated.

[7] = aqueous solution of 5% glucose, saline or isotonic

| SMILES | Mortality rate ([1]; total dose 25 mg/kg) | Mortality rate ([1]; total dose 50 mg/kg) | SV40 promoter inhibitory activity IC50 (SV40 promoter) [ng/mL] | NFκB inhibitory activity IC50 (NFκB) [ng/mL] | A549 proliferation inhibitory action IC50 [2] [ng/mL] | Tumor growth inhibition rate IR ([3]; total dose 25 mg/kg) [%] | Tumor growth inhibition rate IR ([3]; total dose 50 mg/kg) | SW480 proliferation inhibitory action IC50 [4] [ng/mL] | HT-29 proliferation inhibitory action IC50 [5] [ng/mL] | IC50 (SV40 promoter) [ng/mL] | IC50 (NFκB) [ng/mL] | IC50 [2] [ng/mL] | IC50 [4] [ng/mL] | IC50 [5] [ng/mL] | solubility (Solubility of the salts; [7]) [mg/mL] | Tumor growth inhibition rate IR ([6]; total dose 100 mg/kg) | Tumor growth inhibition rate IR ([6]; total dose 200 mg/kg) | solubility (Solubility of the salts; in an aqueous solution of 5% glucose, salt form) [mg/mL] | Tumor growth inhibition rate IR ([6]; total dose 50 mg/kg) |
| --- | --- | --- | --- | --- | --- | --- | --- | --- | --- | --- | --- | --- | --- | --- | --- | --- | --- | --- | --- |
| COc1cc2c3c(c4ccc(OC(=O)c5ccco5)cc4c2cc1OC)[C@H](O)[C@@H]1CCCN1C3.Cl [Compound 20, furan-2-carboxylic acid(12aS,13S)-13-hydroxy-6,7-dimethoxy-9,10,11,12,12a,13-hexahydro-9a-aza-cyclopenta[b]triphenylene-3-yl ester hydrochloride] | 0/5 | 0/5 | >100 | 0.46 | 0.42 | 36.7 | 53.0* % | 0.67 | 0.76 |  |  |  |  |  |  |  |  |  |  |
| COc1cc2c3c(c4cccc(O)c4c2cc1OC)C[C@@H]1CCCN1C3.Cl [Compound 40, (S)-6,7-dimethoxy-9,10,11,12,12a,13-hexahydro-9a-aza-cyclopenta[b]triphenylene-4-ol hydrochloride] | 0/5 | 0/5 |  |  |  | 25.8 | 45.1* % |  |  | > 1000 | 2.4 | 3.3 | 4 | 67.9 |  |  |  |  |  |
| COc1cc2c3c(c4cccc(O)c4c2cc1OC)[C@H](O)[C@@H]1CCCN1C3.CS(=O)(=O)O [Compound 43, (12aS,13S)-6,7-dimethoxy-9,10,11,12,12a,13-hexahydro-9a-aza-cyclopenta[b]triphenylene-4,13-diol methanesulfonate] |  |  |  |  |  |  |  |  |  | > 1000 | 2.7 | 4.4 | 6.2 | 100 | 11.2 |  |  |  |  |
| COc1cc2c3c(c4ccc(F)cc4c2cc1OC)C[C@@H]1CCCN1C3.CS(=O)(=O)O [Compound 44, (S)-3-fluoro-6,7-dimethoxy-9,10,11,12,12a,13-hexahydro-9a-aza-cyclopenta[b]triphenylene methanesulfonate] |  |  |  |  |  |  |  |  |  | > 1000 | 36.8 | 6 | 64.9 | 12.8 | 10.3 | 30.7** % |  |  |  |
| COc1cc2c3c(c4ccc(OC(C)=O)cc4c2cc1OC)C[C@@H]1CCCN1C3.CS(=O)(=O)O [Compound 45, acetic acid(S)-6,7-dimethoxy-9,10,11,12,12a,13-hexahydro-9a-aza-cyclopenta[b]triphenylene-3-yl ester methanesulfonate] |  |  | >100 | 0.41 | 0.64 |  |  | 0.76 | 1.5 |  |  |  |  |  |  |  | 34.7** % | 9.7 |  |
| COC(=O)CCC(=O)Oc1ccc2c3c(c4cc(OC)c(OC)cc4c2c1)CN1CCC[C@H]1C3.CS(=O)(=O)O [Compound 46, succinic acid(S)-6,7-dimethoxy-9,10,11,12,12a,13-hexahydro-9a-aza-cyclopenta[b]triphenylene-3-yl ester methyl ester methanesulfonate] |  |  | >1000 | 0.13 | 1.2 |  |  | 0.36 | 2.1 |  |  |  |  |  |  |  | 34.6** % |  |  |
| COc1cc2c3c(c4ccc(NC(C)=O)cc4c2cc1OC)C[C@@H]1CCCN1C3.CS(=O)(=O)O [Compound 56, N-((S)-6,7-dimethoxy-9,10,11,12,12a,13-hexahydro-9a-aza-cyclopenta[b]triphenylene-3-yl)-acetamide methanesulfonate] |  |  |  |  |  |  |  |  |  | > 10 | 2.9 | 2.2 | 4.8 | 2.4 |  | 68.9** % |  |  | 39.1** % |

Reference: patent US8569327B2, “Phenanthroindolizidine derivative and NFκB inhibitor containing same as active ingredient” (Kabushiki Kaisha Yakult Honsha, priority 2008, dated 2013)
